# Data taken from US20210322339A1, “COMBINATION THERAPY OF COENZYME Q10 AND RADIATION FOR TREATMENT OF GLIOMA” (Berg LLC, priority 2019, published 2021).
# Assays:
# C6 glioma cells = experiment: Orthotopic C6 glioma rat model, survival and MRI; assay type: in vivo, Wistar rats; conditions: long-term survivor, D27, D34, D102
# Method: 10^6 C6 glioma cells were implanted into the right striatum of Wistar rats. Four days after implantation, animals started to receive saline (n=32) or 50 mg/kg of Coenzyme Q10 (n=21), twice a day, i.p. for 45 days. Surviving animals remained in the study until Day 102 (A) Kaplan-Meier survival curve of rats during 45 days of treatment. Over 25% of rats treated with Coenzyme Q10 survived 45 days, considered long-term survival in this model (p<0.01, log rank test). (B) Serial MRI images of a long-term survivor (D27, D34, D102). […] Far right panel is a coronal section of the long-term survivor.
# 10^6 C6 glioma cells were implanted into the right striatum of Wistar rats. Four days after implantation, animals started to receive saline (n=32) or 50 mg/kg of Coenzyme Q10 (n=21), twice a day, i.p. for 45 days. Surviving animals remained in the study until Day 102.
# [1] = system: NHA (normal human astrocytes); experiment: Human co-culture U251/NHA, flow cytometry of superoxide in non-cancerous cells; assay type: cell-based; conditions: 0, 230 or 460 μM
# From the text: (§1) (A) Strategy of human co-culture experiments. In the human cell model, NHA (non-label) and U251 (GFP-labelled) cells are co-cultured in designated cell density. […] (C) Flow cytometric analysis (scatter plot) of GFP and superoxide for U251/NHA cocultures. Cell populations are characterized based by GFP intensity (GFP-negative, GFP-low, and GFP-high). […] (D) Quantification of cell percentages from (C) illustrating the increased number of GFP-low cells with increased dose. (E) Flow cytometric analysis of superoxide and DAPI for NHA-U251/NHA co-cultures treated with 0, 230, or 460 μM Coenzyme Q10.
# (§2) We assessed the effects of Coenzyme Q10 on mitochondrial superoxide production in in vitro cocultures of glioma and non-cancerous cells, i.e. rodent C6 glioma, rodent NIH3T3 non-cancerous fibroblast cells, human U251 glioma, and primary human non-cancerous astrocytes.
# (§3) In the human cell model, NHA (non-label) and U251 (GFP-labelled) cells were co-cultured at a designated cell density. Phase and fluorescent images of U251/NHA Co-cultures of U251/NHA cells were treated with 0 or 460 μM Coenzyme Q10 and detected by phase and fluorescent imaging. […] See FIG. 2 B. Cells were also analyzed by flow cytometric analysis (scatter plot) of GFP and superoxide for U251/NHA cocultures. […] Quantification of cell percentages illustrated the increased number of GFP-low cells with increased dose.
# high-grade glioma = conditions: one patient, after 6 weeks in the study
# Method: The patients in this study were administered a CoQ10-lipid conjugate in which oxidized CoQ10 was incorporated into a mixture of mitochondria compatible lipids, enabling delivery of supraphysiological concentrations of CoQ10 to the mitochondria.
# This study was a phase I trial of Coenzyme Q10 to assess for safety and tolerability of Coenzyme Q10 with vitamin K in patients with HGGs that were progressive after a bevacizumab (BEV) containing regimen. […] Therefore, this study used 10 mg vitamin K prophylactically.
# Design: Modified toxicity probability interval design (mTPI) enrolling patients sequentially and monitoring through a 28-day DLT period. 1 dose escalation and 2 dose de-escalations allowed.
# Key Inclusion Criteria: HGG (GB, Gliosarcoma, AA, AO) sp radiation with TMZ in recurrence after treatment with BEV. Evidence of leptomeningeal spread was allowed. >18 w KPS>60. Normal coagulation labs.
# Key Exclusion Criteria: History of spontaneous or tumor related intracerebral hemorrhage. Uncontrolled coagulopathies or use of anti-coagulants.
# C6 cells = experiment: Implanted luciferase-labeled C6 glioma rat model with radiotherapy, survival; assay type: in vivo, Sprague Dawley rats
# Method: Methodology: 1×10^6 luciferase labeled C6 cells were implanted into the right striatum of Sprague Dawley rats. 4 days post-implantation, 50 rats were randomized into one of four groups:
# (i) Saline injection ip bid; (12 rats)
# (ii) Coenzyme Q10 50 mg/kg ip bid to continue up to 35 days; (12 rats)
# (iii) 12 Gy radiotherapy (RT) to be administered on Day 8 post-implant with saline injection (12 rats); and
# (iv) Coenzyme Q10+RT (14 rats).
# Tumor-bearing rats were monitored until death or Day 50.
# U251 glioma cells = experiment: Human co-culture U251/NHA, imaging and flow cytometry of GFP, superoxide and DAPI; assay type: cell-based
# From the text: as §1, §2
# as §3, with “cocultures. Cell populations were characterized based by GFP intensity (GFP-negative, GFP-low, and GFP-high).” for “cocultures.”
# [2] = system: C6 glioma and NIH3T3 cells; experiment: Rodent co-culture of C6-GFP glioma and NIH3T3 cells, cell number and Mitosox superoxide by flow cytometry; assay type: cell-based
# Method: FIGS. 2A-2F show differential induction of mitochondrial superoxide by Coenzyme Q10 in non-cancer vs. neoplastic cells. (A) Strategy of rodent co-culture experiments using glioma and non-tumor cells. The rodent cell co-culture consisted of fibroblastic NIH3T3 and glioma C6-GFP cells. (B) NIH3T3 and C6 cells were initially seeded in 1:1 ratio. After 72 h or 144 h incubation with Coenzyme Q10 (0 μM, […], 115 μM, 230 μM, […] or 460 μM), the number of C6 or NIH3T3 cells in co-culture is generated by flow-cytometry. (C) Images were taken at 72 hrs post-dosing (0 μM, 230 μM or 460 μM) using a Leica CTR5000. […] Percentage of cells harboring positive or negative level of superoxide from C6 (GFP+) or NIH3T3 (GFP−) population are recorded by flow cytometry (D) and presented as table of summary (E). […]
# as §2
# For the rodent cells, NIH3T3 and C6 cells were initially seeded in a 1:1 ratio. […] Superoxide level was detected by Mitosox staining. The percentage of cells harboring positive or negative levels of superoxide from C6 (GFP+) or NIH3T3 (GFP−) populations were determined by flow cytometry.
# [3] = system: recurrent high-grade gliomas; conditions: patients with recurrent high-grade gliomas; cited from earlier work
Compound,tumor size over time on serial MRI after treatment was withdrawn (C6 glioma cells),superoxide values in GFP-negative (NHA) cells [1],glucose uptake by FDG-PET in the area of prior surgery (high-grade glioma),"median survival (C6 cells; Coenzyme Q10 50 mg/kg ip bid up to 35 days, 12 Gy RT on Day 8, monitored to Day 50, p<0.001) [days]",Long Term Survivors (%) (C6 cells; survived for 45 days),"DAPI levels (U251 glioma cells; 0, 230 or 460 μM)","superoxide values in GFP-low and GFP-high cells (U251 glioma cells; 0, 230 or 460 μM)","glioma cell levels by phase and fluorescent imaging (U251 glioma cells; 460 μM, U251/NHA co-culture)",superoxide level of U251 glioma cells compared to human astrocytes upon treatment (U251 glioma cells; basal difference 1.5-fold),"percentage of GFP-low relative to GFP-high cells (U251 glioma cells; with increasing dose, flow cytometry)",dosage of peak effect of differences in superoxide levels and cell growth ([2]; C6/NIH3T3 co-culture),induction of mitochondrial superoxide versus non-neoplastic cells ([2]; C6 and U251 cells exposed to Coenzyme Q10),response rates [3]
COC1=C(OC)C(=O)C(C/C=C(\C)CC/C=C(\C)CC/C=C(\C)CC/C=C(\C)CC/C=C(\C)CC/C=C(\C)CC/C=C(\C)CC/C=C(\C)CC/C=C(\C)CCC=C(C)C)=C(C)C1=O [Coenzyme Q10],continued shrinkage of the tumor over time,insignificant changes,decreased glucose uptake,19,5/12 (42%),only significantly elevated in GFP-low cells,increase in superoxide values,decreased glioma cell levels with a relative sparing of NHA cells,over 4 fold,increased percentage of GFP-low relative to GFP-high cells,230,significantly more induction of mitochondrial superoxide than non-neoplastic cells,–
Bevacizumab: a monoclonal antibody against vascular endothelial growth factor (VEGF),–,–,–,–,–,–,–,–,–,–,–,–,32-62%
